The values below are quoted from earlier work in US20160120848A1, “SPECIFIC CANCER TREATMENT REGIMES WITH GANETESPIB” (SYNTA PHARMACEUTICALS CORP., priority 2013, published 2016).

Series [1] relates to FLT3 with Hsp90. The settings on record: cited from earlier work.
The subject of series [2] is leukemia cells that express either wild type FLT3 or FLT3-ITD mutations. The settings on record: cells expressing wild type FLT3 or FLT3-ITD mutations; cited from earlier work.
Series [3] has as its system Kasumi-1 cells. Conditions: Kasumi-1, acute myeloid leukemia cell line with c-Kit mutation; cited from earlier work.

Structures are written as SMILES.

On to `C=CCNC1=C2C[C@@H](C)C[C@H](OC)[C@H](O)[C@@H](C)/C=C(\C)[C@H](OC(N)=O)[C@@H](OC)/C=C\C=C(/C)C(=O)NC(=CC1=O)C2=O` [17AAG], for which the “effect on association of FLT3 with Hsp90” value in series [1] is reported as “disrupt the association of FLT3 with Hsp90”. Besides, the “growth of leukemia cells” value in series [2] was “inhibited”. Also, the apoptosis result in series [3] is on record as “induce apoptosis”.
